One test deals with T1, human S1P1 receptor (Homo sapiens, UniProt P21453).
T1 construct: expressed in transfected cells; membranes used
As to the kind of experiment: GTP γ35S binding assay for S1P1 activity. Format: biochemical. The following applies: membranes of cells stably expressing S1P1 receptor. Here is the method:
Compounds were synthesized and tested for S1P1 activity using the GTP γ^35S binding assay. These compounds may be assessed for their ability to activate or block activation of the human S1P1 receptor in cells stably expressing the S1P1 receptor.
GTP γ^35S binding was measured in the medium containing (mM) HEPES 25, pH 7.4, MgCl2 10, NaCl 100, dithitothreitol 0.5, digitonin 0.003%, 0.2 nM GTP γ^35S, and 5 μg membrane protein in a volume of 150 μl. Test compounds were included in the concentration range from 0.08 to 5,000 nM unless indicated otherwise. Membranes were incubated with 100 μM 5′-adenylylimmidodiphosphate for 30 min, and subsequently with 10 μM GDP for 10 min on ice. Drug solutions and membrane were mixed, and then reactions were initiated by adding GTP γ^35S and continued for 30 min at 25° C. Reaction mixtures were filtered over Whatman GF/B filters under vacuum, and washed three times with 3 mL of ice-cold buffer (HEPES 25, pH7.4, MgCl2 10 and NaCl 100). Filters were dried and mixed with scintillant, and counted for ^35S activity using a β-counter. Agonist-induced GTP γ^35S binding was obtained by subtracting that in the absence of agonist. Binding data were analyzed using a non-linear regression method. In case of antagonist assay, the reaction mixture contained 10 nM […] in the presence of test antagonist at concentrations ranging from 0.08 to 5000 nM.
On the technique in general: GTPγS is a poorly hydrolysed GTP analogue; its binding reports G protein activation.

The next test concerns female C57BL6 mice. As to the kind of experiment: Lymphopenia assay in mice (in vivo blood lymphocyte depletion). Particulars: subcutaneous, 10 mg/Kg or 2 mg/Kg, 24 hours after dosing, FIG. 1 / FIG. 2. The protocol: Test drugs are prepared in a solution containing 3% (w/v) 2-hydroxy propyl R-cyclodextrin (HPBCD) and 1% DMSO to a final concentration of 1 mg/ml, and subcutaneously injected to female C57BL6 mice (CHARLES RIVERS) weighing 20-25 g at the dose of 10 mg/Kg. Blood samples are obtained by puncturing the submandibular skin with a Goldenrod animal lancet at 5, 24, 48, 72, and 96 hrs post drug application. Blood is collected into microvettes (SARSTEDT) containing EDTA tripotassium salt. Lymphocytes in blood samples are counted using a HEMAVET Multispecies Hematology System, HEMAVET HV950FS (Drew Scientific Inc.). (Hale, J. et al Bioorg. & Med. Chem. Lett. 14 (2004) 3351).
A lymphopenia assay in mice, as previously described, was employed to measure the in vivo blood lymphocyte depletion after dosing Compounds 9, 10, 11 and 14, (FIG. 1) and Compounds 15, 17, 18 and 20, (FIG. 2). These S1P agonists (or modulators) are useful for S1P-related diseases, and exemplified by the lymphopenia in vivo response. In general, test compounds were prepared in a solution containing 3% (w/v) 2-hydroxy propyl β-cyclodextrin (HPBCD) and 1% DMSO to a final concentration of 1 mg/ml, and subcutaneously injected to female C57BL6 mice (CHARLES RIVERS) weighing 20-25 g at the dose of 10 mg/Kg or 2 mg/Kg. Blood samples were obtained by puncturing the submandibular skin with a Goldenrod animal lancet at 24, 48, 72 and 96 hrs post drug application. Blood was collected into microvettes (SARSTEDT) containing EDTA tripotassium salt. Lymphocytes in blood samples were counted using a HEMAVET Multispecies Hematology System, HEMAVET HV950FS (Drew Scientific Inc.).

Each structure is given as a SMILES string.

As usually defined, the EC50 is the concentration needed to bring the measured effect to its halfway point. Lower therefore signals higher potency in that assay.

T1 sequence (P21453 whole entry): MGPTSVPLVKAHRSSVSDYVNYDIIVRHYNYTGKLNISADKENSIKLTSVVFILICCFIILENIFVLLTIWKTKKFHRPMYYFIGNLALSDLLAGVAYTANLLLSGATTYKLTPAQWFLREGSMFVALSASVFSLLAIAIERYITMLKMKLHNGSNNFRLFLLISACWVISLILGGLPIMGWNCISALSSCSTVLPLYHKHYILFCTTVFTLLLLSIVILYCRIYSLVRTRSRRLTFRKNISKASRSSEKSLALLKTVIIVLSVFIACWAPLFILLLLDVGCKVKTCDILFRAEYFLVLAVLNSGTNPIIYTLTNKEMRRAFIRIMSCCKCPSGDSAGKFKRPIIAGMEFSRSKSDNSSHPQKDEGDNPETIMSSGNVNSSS

At human S1P1 receptor, `O=P(O)(O)CCCNCc1ccc(-c2ccc(CCCc3ccccc3)c(F)c2)c2cccnc12` [Compound 2, {3-[({5-[3-fluoro-4-(3-phenylpropyl)phenyl]quinolin-8-yl}methyl)amino]propyl}phosphonic acid] showed an EC50 of 5.95 nM.
The molecule `CCCCCCc1ccc(-c2ccc(CNCCCP(=O)(O)O)c3ccccc23)cc1` [Compound 3, [3-({[4-(4-hexylphenyl)-1-naphthyl]methyl}amino)propyl]phosphonic acid] yielded an EC50 at human S1P1 receptor of 54.2 nM.
The same measure, in the same setting: in the case of `CCCCCCc1ccc(-c2ccc(CNCCCP(=O)(O)O)c3ncccc23)cc1` [Compound 4, [3-({[5-(4-hexylphenyl)quinolin-8-yl]methyl}amino)propyl]phosphonic acid] it was 0.6 nM; in that of `CCCCCCc1ccc(-c2ccc(CNCCOP(=O)(O)O)c3ncccc23)cc1` [Compound 5, 2-({[5-(4-hexylphenyl)quinolin-8-yl]methyl}amino)ethyl dihydrogen phosphate], 31.1 nM; in that of `O=P(O)(O)CCCNCc1ccc(-c2ccc(CCCc3ccccc3)cc2)c2cccnc12` [Compound 6, {3-[({5-[4-(3-phenylpropyl)phenyl]quinolin-8-yl}methyl)amino]propyl}phosphonic acid], 8.3 nM.
The same measure, in the same setting: under `CCCCCCc1ccc(-c2ccc(CNCCC(=O)O)c3ncccc23)cc1` [Compound 7, 3-({[5-(4-hexylphenyl)quinolin-8-yl]methyl}amino)propanoic acid] stands 872 nM; under `Cc1ccccc1CCCc1ccc(-c2ccc(CNCCCP(=O)(O)O)c3ncccc23)cc1` [Compound 8, (3-{[(5-{4-[3-(2-methylphenyl)propyl]phenyl}quinolin-8-yl)methyl]amino}propyl)phosphonic acid], 3.8 nM.
Take `CCCCCCCc1ccc(-c2ccc(CNCCCP(=O)(O)O)c3ncccc23)c(F)c1` [Compound 9, [3-({[5-(2-fluoro-4-heptylphenyl)quinolin-8-yl]methyl}amino)propyl]phosphonic acid]: a half-maximal response at human S1P1 receptor (EC50) required 13.6 nM. Moreover, the “lymphocyte count after 24 hours” value in the test with female C57BL6 mice was “lowered lymphocyte count”.
In the same order, the values of `CCCCCCCc1ccc(-c2ccc(CNCCCP(=O)(O)O)c3ncccc23)cc1F` [Compound 10, [3-({[5-(3-fluoro-4-heptylphenyl)quinolin-8-yl]methyl}amino)propyl]phosphonic acid] are 223 nM and “lowered lymphocyte count”.
The corresponding values for `CCCCC(CC)CCc1ccc(-c2ccc(CNCCCP(=O)(O)O)c3ncccc23)cc1` (centres unmarked) [Compound 11, {3-[({5-[4-(3-ethylheptyl)phenyl]quinolin-8-yl}methyl)amino]propyl}phosphonic acid] are 6.97 nM and “lowered lymphocyte count”.
Regarding `CCCCCCCCc1ccc(-c2ccc(CNCCCP(=O)(O)O)c3ncccc23)cc1` [Compound 12, [3-({[5-(4-octylphenyl)quinolin-8-yl]methyl}amino)propyl]phosphonic acid], the EC50 at human S1P1 receptor was determined as 11.2 nM.
Same read-out and setting: in the case of `CCCCCCc1ccc(-c2ccc(CNCCCP(=O)(O)O)c3ncccc23)cc1F` [Compound 13, [3-({[5-(3-fluoro-4-hexylphenyl)quinolin-8-yl]methyl}amino)propyl]phosphonic acid] it was 1.3 nM.
With `O=P(O)(O)CCCNCc1ccc(-c2ccc(CCC3CCCCC3)cc2)c2cccnc12` [Compound 14, {3-[({5-[4-(2-cyclohexylethyl)phenyl]quinolin-8-yl}methyl)amino]propyl}phosphonic acid], at human S1P1 receptor, the EC50 stood at 1.5 nM. In addition, the “lymphocyte count after 24 hours” value in the test on female C57BL6 mice was “lowered lymphocyte count”.
The corresponding values for `CCCCCCc1ccc(-c2ccc(CNCCO)c3ncccc23)cc1` [Compound 15, 2-({[5-(4-hexylphenyl)quinolin-8-yl]methyl}amino)ethanol] are 192 nM and “lowered lymphocyte count”.
Consider `Cc1ccccc1CCCc1ccc(-c2ccc(CNCCCP(=O)(O)O)c3ncccc23)cc1F` [Compound 16, (3-{[(5-{3-fluoro-4-[3-(2-methylphenyl)propyl]phenyl}quinolin-8-yl)methyl]amino}propyl)phosphonic acid], for which, at human S1P1 receptor, the EC50 worked out at 1 nM.
As to `Cc1cccc(CCCc2ccc(-c3ccc(CNCCCP(=O)(O)O)c4ncccc34)cc2F)c1` [Compound 17, (3-{[(5-{3-fluoro-4-[3-(3-methylphenyl)propyl]phenyl}quinolin-8-yl)methyl]amino}propyl)phosphonic acid], a half-maximal effect at human S1P1 receptor (EC50) was put at 0.3 nM. The “lymphocyte count after 24 hours” value with female C57BL6 mice is “lowered lymphocyte count”.
The corresponding values for `Cc1ccc(CCCc2ccc(-c3ccc(CNCCCP(=O)(O)O)c4ncccc34)cc2F)cc1` [Compound 18, (3-{[(5-{3-fluoro-4-[3-(4-methylphenyl)propyl]phenyl}quinolin-8-yl)methyl]amino}propyl)phosphonic acid] are 1 nM and “lowered lymphocyte count”.
`CCCCC(CC)CCc1ccc(-c2ccc(CNCCCP(=O)(O)O)c3ncccc23)cc1F` (centres unmarked) [Compound 19, {3-[({5-[4-(3-ethylheptyl)-3-fluorophenyl]quinolin-8-yl}methyl)amino]propyl}phosphonic acid] yielded an EC50 at human S1P1 receptor of 2.5 nM.
`O=P(O)(O)CCCNCc1ccc(-c2ccc(CCC3CCCCC3)c(F)c2)c2cccnc12` [Compound 20, {3-[({5-[4-(2-cyclohexylethyl)-3-fluorophenyl]quinolin-8-yl}methyl)amino]propyl}phosphonic acid] returned an EC50 on human S1P1 receptor of 1.68 nM. The “lymphocyte count after 24 hours” value with female C57BL6 mice is “lowered lymphocyte count”.
With `CCCCC(CC)CCc1ccc(-c2ccc(CNCCO)c3ncccc23)cc1F` (centres unmarked) [Compound 22, 2-[({5-[4-(3-ethylheptyl)-3-fluorophenyl]quinolin-8-yl}methyl)amino]ethanol], the response on human S1P1 receptor was half-maximal at 137 nM (EC50).
On the same count and under the same terms, in the case of `CCCCC(CC)CCc1ccc(-c2ccc(CNCCOP(=O)(O)O)c3ncccc23)cc1F` (centres unmarked) [Compound 23, 2-[({5-[4-(3-ethylheptyl)-3-fluorophenyl]quinolin-8-yl}methyl)amino]ethyl dihydrogen phosphate] it was 2.63 nM.

(Values after patent publication US8653050B2, “Phenyl bicyclic methyl amine derivatives as sphingosine-1 phosphate receptors modulators” (Allergan, Inc., priority 2011, dated 2014).)
